{"source": "the supplement of paper PMC11208160", "data": [{"assay": "recombinant UMI read abundance after kanamycin selection (control-corrected) (log10(CPM+1)); higher = more efficient recombination; extreme values may be limits of the assay; sequences stand for … in AGTGCAGAGAAAATCGGCCAGTTTTCTCTGCCTGCAGTCCGCATGCCGTGGGACCCCTTGGGTTCTAACCTGTTGCCTAGATTTATGCAGCGGACTGCCTTTCTCCCAAAGTGATAAACCGG…AGGTTGGTTTCACT; site = the 11-nt donor", "method_in_brief": "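Values, expressed as log10(CPM+1), derive from recombinant UMI counts converted to CPM, averaged across replicates and scaled by control-derived factors. Plating was with IPTG (0.07 mM) plus kanamycin or unselected, two replicates each. The screen pooled donor and donor-binding-loop pairs for the IS621 bridge recombinase in Escherichia coli.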", "values": [{"sequence": "CTTGAGTCATGGACCGGTTTTCCCGGTAATCCGTATTTGAT (site CTTGAGTCTAT)", "recombinant UMI read abundance (log10)": 2.13}, {"sequence": "CTTGAGTCATGGACCGGTTTTCCCGGTAATCCGTATTTGTT (site CTTGAGTCTAA)", "recombinant UMI read abundance (log10)": 2.46}, {"sequence": "CTTGTAACATGGACCGGTTTTCCCGGTAATCCGTATTTGGC (site CTTGTAACTGC)", "recombinant UMI read abundance (log10)": 0}, {"sequence": "CTTGTAGCATGGACCGGTTTTCCCGGTAATCCGTATTTGTC (site CTTGTAGCTGA)", "recombinant UMI read abundance (log10)": 0.797}, {"sequence": "CTTGTCTCATGGACCGGTTTTCCCGGTAATCCGTATTTGTA (site CTTATCTCTTA)", "recombinant UMI read abundance (log10)": 1.78}, {"sequence": "CTTGTCTCATGGACCGGTTTTCCCGGTAATCCGTATTTGTA (site CTTCTCTCTTA)", "recombinant UMI read abundance (log10)": 0.856}, {"sequence": "CTTGTCTCATGGACCGGTTTTCCCGGTAATCCGTATTTGTA (site CTTGTCTCTTA)", "recombinant UMI read abundance (log10)": 2.82}, {"sequence": "CTTGTCTCATGGACCGGTTTTCCCGGTAATCCGTATTTGTA (site CTTTTCTCTTA)", "recombinant UMI read abundance (log10)": 0}, {"sequence": "CTTGTGTCATGGACCGGTTTTCCCGGTAATCCGTATTTGTG (site CTTGTGTCTCA)", "recombinant UMI read abundance (log10)": 2.16}, {"sequence": "CTTGTTCCATGGACCGGTTTTCCCGGTAATCCGTATTTGGT (site ATTGTTCCTAC)", "recombinant UMI read abundance (log10)": 0.0155}, {"sequence": "CTTGTTCCATGGACCGGTTTTCCCGGTAATCCGTATTTGGT (site CTTGTTCCTAC)", "recombinant UMI read abundance (log10)": 0.00959}, {"sequence": "CTTGTTCCATGGACCGGTTTTCCCGGTAATCCGTATTTGGT (site GTTGTTCCTAC)", "recombinant UMI read abundance (log10)": 0.0201}, {"sequence": "CTTGTTCCATGGACCGGTTTTCCCGGTAATCCGTATTTGGT (site TTTGTTCCTAC)", "recombinant UMI read abundance (log10)": 0.0168}, {"sequence": "CTTTACGCATGGACCGGTTTTCCCGGTAATCCGTATTTGTA (site CTTTACGCTTA)", "recombinant UMI read abundance (log10)": 0.0146}, {"sequence": "CTTTAGACATGGACCGGTTTTCCCGGTAATCCGTATTTGAG (site CATTAGACTCT)", "recombinant UMI read abundance (log10)": 0.351}, {"sequence": "CTTTAGACATGGACCGGTTTTCCCGGTAATCCGTATTTGAG (site CCTTAGACTCT)", "recombinant UMI read abundance (log10)": 0}, {"sequence": "CTTTAGACATGGACCGGTTTTCCCGGTAATCCGTATTTGAG (site CGTTAGACTCT)", "recombinant UMI read abundance (log10)": 0.118}, {"sequence": "CTTTAGACATGGACCGGTTTTCCCGGTAATCCGTATTTGAG (site CTTTAGACTCT)", "recombinant UMI read abundance (log10)": 1.31}, {"sequence": "CTTTATACATGGACCGGTTTTCCCGGTAATCCGTATTTGTT (site CTTTATACTAA)", "recombinant UMI read abundance (log10)": 0.121}, {"sequence": "CTTTATTCATGGACCGGTTTTCCCGGTAATCCGTATTTGCG (site CTTTATTCTCG)", "recombinant UMI read abundance (log10)": 1.11}, {"sequence": "CTTTGCCCATGGACCGGTTTTCCCGGTAATCCGTATTTGCT (site CTTTGCCCTAG)", "recombinant UMI read abundance (log10)": 0.182}, {"sequence": "CTTTGGGCATGGACCGGTTTTCCCGGTAATCCGTATTTGCC (site CTTTGGGCTGG)", "recombinant UMI read abundance (log10)": 0}, {"sequence": "CTTTTATCATGGACCGGTTTTCCCGGTAATCCGTATTTGAC (site CTAGTATCTGT)", "recombinant UMI read abundance (log10)": 0.225}, {"sequence": "CTTTTATCATGGACCGGTTTTCCCGGTAATCCGTATTTGAC (site CTTTTATCTGT)", "recombinant UMI read abundance (log10)": 0.762}, {"sequence": "GAAAAACCATGGACCGGTTTTCCCGGTAATCCGTATTTGGT (site GAAAAACCTAC)", "recombinant UMI read abundance (log10)": 0}, {"sequence": "GAAAAACCATGGACCGGTTTTCCCGGTAATCCGTATTTGGT (site GACAAACCTAC)", "recombinant UMI read abundance (log10)": 0}, {"sequence": "GAAAAACCATGGACCGGTTTTCCCGGTAATCCGTATTTGGT (site GAGAAACCTAC)", "recombinant UMI read abundance (log10)": 0}, {"sequence": "GAAAAACCATGGACCGGTTTTCCCGGTAATCCGTATTTGGT (site GATAAACCTAC)", "recombinant UMI read abundance (log10)": 0}, {"sequence": "GAAAAGGCATGGACCGGTTTTCCCGGTAATCCGTATTTGTC (site GAAAAGGCTGA)", "recombinant UMI read abundance (log10)": 2.08}, {"sequence": "GAAACACCATGGACCGGTTTTCCCGGTAATCCGTATTTGAG (site GAAACACCTCT)", "recombinant UMI read abundance (log10)": 0.0146}, {"sequence": "GAAAGCCCATGGACCGGTTTTCCCGGTAATCCGTATTTGAC (site GAAAGCCCTGT)", "recombinant UMI read abundance (log10)": 0}, {"sequence": "GAAAGCTCATGGACCGGTTTTCCCGGTAATCCGTATTTGCC (site GAAAGCTCTGG)", "recombinant UMI read abundance (log10)": 2.75}, {"sequence": "GAAATCTCATGGACCGGTTTTCCCGGTAATCCGTATTTGCG (site GAAATCTCTCG)", "recombinant UMI read abundance (log10)": 2.44}, {"sequence": "GAAATGGCATGGACCGGTTTTCCCGGTAATCCGTATTTGAC (site GAAATGGCTGT)", "recombinant UMI read abundance (log10)": 1.42}, {"sequence": "GAACAATCATGGACCGGTTTTCCCGGTAATCCGTATTTGCC (site GAACAATCTGG)", "recombinant UMI read abundance (log10)": 1.67}, {"sequence": "GAACCGTCATGGACCGGTTTTCCCGGTAATCCGTATTTGTT (site GAACCGTCTAA)", "recombinant UMI read abundance (log10)": 1}, {"sequence": "GAACGAACATGGACCGGTTTTCCCGGTAATCCGTATTTGGT (site GAACGAACTAC)", "recombinant UMI read abundance (log10)": 1.21}, {"sequence": "GAACTAGCATGGACCGGTTTTCCCGGTAATCCGTATTTGGT (site CGTTGCCCTTA)", "recombinant UMI read abundance (log10)": 0.00867}, {"sequence": "GAACTGGCATGGACCGGTTTTCCCGGTAATCCGTATTTGCT (site GAACTGGCTAG)", "recombinant UMI read abundance (log10)": 0.00438}, {"sequence": "GAACTTGCATGGACCGGTTTTCCCGGTAATCCGTATTTGAC (site CTTACCACTAA)", "recombinant UMI read abundance (log10)": 0.0118}, {"sequence": "GAAGAGACATGGACCGGTTTTCCCGGTAATCCGTATTTGCT (site GAAGAGACTAG)", "recombinant UMI read abundance (log10)": 2.79}, {"sequence": "GAAGATGCATGGACCGGTTTTCCCGGTAATCCGTATTTGTT (site GAAGATACTAA)", "recombinant UMI read abundance (log10)": 1.88}, {"sequence": "GAAGATGCATGGACCGGTTTTCCCGGTAATCCGTATTTGTT (site GAAGATCCTAA)", "recombinant UMI read abundance (log10)": 0.286}, {"sequence": "GAAGATGCATGGACCGGTTTTCCCGGTAATCCGTATTTGTT (site GAAGATGCTAA)", "recombinant UMI read abundance (log10)": 2.81}, {"sequence": "GAAGATGCATGGACCGGTTTTCCCGGTAATCCGTATTTGTT (site GAAGATTCTAA)", "recombinant UMI read abundance (log10)": 0}, {"sequence": "GAAGATTCATGGACCGGTTTTCCCGGTAATCCGTATTTGGT (site GAAGATTCTAA)", "recombinant UMI read abundance (log10)": 0.995}, {"sequence": "GAAGATTCATGGACCGGTTTTCCCGGTAATCCGTATTTGGT (site GAAGATTCTAC)", "recombinant UMI read abundance (log10)": 3.05}, {"sequence": "GAAGATTCATGGACCGGTTTTCCCGGTAATCCGTATTTGGT (site GAAGATTCTAG)", "recombinant UMI read abundance (log10)": 0}, {"sequence": "GAAGATTCATGGACCGGTTTTCCCGGTAATCCGTATTTGGT (site GAAGATTCTAT)", "recombinant UMI read abundance (log10)": 1.82}, {"sequence": "GAAGATTCATGGACCGGTTTTCCCGGTAATCCGTATTTGTA (site GAAGATTCTAA)", "recombinant UMI read abundance (log10)": 0.349}, {"sequence": "GAAGATTCATGGACCGGTTTTCCCGGTAATCCGTATTTGTA (site GAAGATTCTCA)", "recombinant UMI read abundance (log10)": 1.55}, {"sequence": "GAAGATTCATGGACCGGTTTTCCCGGTAATCCGTATTTGTA (site GAAGATTCTGA)", "recombinant UMI read abundance (log10)": 0}, {"sequence": "GAAGATTCATGGACCGGTTTTCCCGGTAATCCGTATTTGTA (site GAAGATTCTTA)", "recombinant UMI read abundance (log10)": 2.5}, {"sequence": "GAAGCAGCATGGACCGGTTTTCCCGGTAATCCGTATTTGCT (site AAAGCAGCTAG)", "recombinant UMI read abundance (log10)": 1.32}, {"sequence": "GAAGCAGCATGGACCGGTTTTCCCGGTAATCCGTATTTGCT (site CAAGCAGCTAG)", "recombinant UMI read abundance (log10)": 1.19}, {"sequence": "GAAGCAGCATGGACCGGTTTTCCCGGTAATCCGTATTTGCT (site GAAGCAGCTAG)", "recombinant UMI read abundance (log10)": 2.25}, {"sequence": "GAAGCAGCATGGACCGGTTTTCCCGGTAATCCGTATTTGCT (site TAAGCAGCTAG)", "recombinant UMI read abundance (log10)": 2.01}, {"sequence": "GAAGCGCCATGGACCGGTTTTCCCGGTAATCCGTATTTGTG (site AAAGCGCCTCA)", "recombinant UMI read abundance (log10)": 0.00334}, {"sequence": "GAAGCGCCATGGACCGGTTTTCCCGGTAATCCGTATTTGTG (site CAAGCGCCTCA)", "recombinant UMI read abundance (log10)": 0.00406}, {"sequence": "GAAGCGCCATGGACCGGTTTTCCCGGTAATCCGTATTTGTG (site GAAGCGCCTCA)", "recombinant UMI read abundance (log10)": 0.139}, {"sequence": "GAAGCGCCATGGACCGGTTTTCCCGGTAATCCGTATTTGTG (site TAAGCGCCTCA)", "recombinant UMI read abundance (log10)": 0.00772}, {"sequence": "GAAGGGCCATGGACCGGTTTTCCCGGTAATCCGTATTTGTG (site GAAGGGCCTCA)", "recombinant UMI read abundance (log10)": 0.0149}, {"sequence": "GAAGGTACATGGACCGGTTTTCCCGGTAATCCGTATTTGAC (site GAAGGTACTGT)", "recombinant UMI read abundance (log10)": 2.28}, {"sequence": "GAAGGTACATGGACCGGTTTTCCCGGTAATCCGTATTTGAC (site GCAGGTACTGT)", "recombinant UMI read abundance (log10)": 0}, {"sequence": "GAAGGTACATGGACCGGTTTTCCCGGTAATCCGTATTTGAC (site GGAGGTACTGT)", "recombinant UMI read abundance (log10)": 0}, {"sequence": "GAAGGTACATGGACCGGTTTTCCCGGTAATCCGTATTTGAC (site GTAGGTACTGT)", "recombinant UMI read abundance (log10)": 2.16}, {"sequence": "GAAGTCGCATGGACCGGTTTTCCCGGTAATCCGTATTTGGT (site GAAGTCGCTAC)", "recombinant UMI read abundance (log10)": 1.34}, {"sequence": "GAAGTGGCATGGACCGGTTTTCCCGGTAATCCGTATTTGGT (site GAAGTGGCTAC)", "recombinant UMI read abundance (log10)": 0.489}, {"sequence": "GAAGTGGCATGGACCGGTTTTCCCGGTAATCCGTATTTGGT (site GCAGTGGCTAC)", "recombinant UMI read abundance (log10)": 0.177}, {"sequence": "GAAGTGGCATGGACCGGTTTTCCCGGTAATCCGTATTTGGT (site GGAGTGGCTAC)", "recombinant UMI read abundance (log10)": 0.113}, {"sequence": "GAAGTGGCATGGACCGGTTTTCCCGGTAATCCGTATTTGGT (site GTAGTGGCTAC)", "recombinant UMI read abundance (log10)": 0.882}, {"sequence": "GAAGTGTCATGGACCGGTTTTCCCGGTAATCCGTATTTGAA (site GAAGTGTCTTT)", "recombinant UMI read abundance (log10)": 3.13}, {"sequence": "GAATAGCCATGGACCGGTTTTCCCGGTAATCCGTATTTGCA (site GAATAGCCTTG)", "recombinant UMI read abundance (log10)": 0.97}, {"sequence": "GAATAGCCATGGACCGGTTTTCCCGGTAATCCGTATTTGCA (site GAATCGCCTTG)", "recombinant UMI read abundance (log10)": 0}, {"sequence": "GAATAGCCATGGACCGGTTTTCCCGGTAATCCGTATTTGCA (site GAATGGCCTTG)", "recombinant UMI read abundance (log10)": 0.0428}]}]}
